Columns and labels:
purified HLA DRB5*0101 = target: T1, purified HLA DRB5*0101 (Homo sapiens, UniProt P01903+Q30154); assay: HLA-DR radioligand binding inhibition assay, DRB5*0101; conditions: IC50 nM purified HLA DRB5 *0101, purified HLA DRB5*0101
T1 construct: purified from EBV transformed homozygous cell lines or single MHC allele transfected 721.221, C1R, or fibroblast lines; made in house
In short: (§1)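 First, HLA-DR was purified from lysates on LB3.1 columns. Then 1 μM to 1 nM protein was incubated 2 days with 1-10 nM radiolabeled peptide at pH 4 to 7. Finally, complexes were captured for 3 hours and bound cpm determined.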

purified HLA DRB1*0401 = target: T2, purified HLA DRB1*0401 (Homo sapiens, UniProt P01903+P01911, A100K/A169T/F76Y/I96L/K127E/L162R/M171V/N62H/P40V/Q125Y/R42H/S133A/S149N/S66Y/V115G/V209L/W38E); assay: HLA-DR radioligand binding inhibition assay, DRB1*0401; conditions: IC50 nM purified HLA DRB1 *0401, purified HLA DRB1*0401
T2 construct: purified from EBV transformed homozygous cell lines or single MHC allele transfected 721.221, C1R, or fibroblast lines; made in house
In short: as §1

purified HLA DRB1*1201 = target: T3, purified HLA DRB1*1201 (Homo sapiens, UniProt P01903+P01911, A100R/A169T/D57E/D86V/F55L/H45Y/K41T/L162R/M171V/P40S/Q125H/Q178H/Q39Y/Q99D/R42G/S66L/T262R/V114A/V67L/W38E/Y59H/Y61H/Y89S); assay: HLA-DR radioligand binding inhibition assay, DRB1*1201
T3 construct: purified from EBV transformed homozygous cell lines or single MHC allele transfected 721.221, C1R, or fibroblast lines; made in house
Method: (§2) Instead, wells of an opaque white 96-well Optiplate (Packard) are coated with 3 μg (100 μl@ 30 μg/ml) of HLA-specific antibody (Ab) that “capture” complexes of radiolabeled MHC and unlabeled peptide transferred from the molecular binding assay plate in 100 μl of 0.05% NP40/PBS. After a 3-hour incubation period, the supernatant is decanted and scintillation fluid (Microscint 20) added. Captured complexes are then measured on a microplate scintillation and luminescence counter (TopCount NXTTM; Packard).
(§3) HLA-DR purification. Fifteen distinct HLA-DR molecules were used in quantitative assays to measure the binding of peptides to solubilized HLA-DR molecules. […] Briefly, columns of inactivated Sepharose CL4B and Protein A Sepharose were used as pre-columns. HLA-DR molecules were captured by passage of lysates over LB3.1 monoclonal antibody (anti-HLA-DRA) columns. Antibody columns were washed with 10 mM Tris-HCL, pH8.0 with 1% (v/v) NP-40, followed by PBS containing 0.4% (w/v) n-octylglucoside. […] The pH was reduced to 8.0 and the eluates were concentrated by centrifugation in Centriprep 30 concentrators at 2000 rpm (Amicon, Beverly, Mass.).
(§4) Briefly, 1-10 nM of radiolabeled peptide was co-incubated for 2 days at either room temperature or 37° C. with 1 μM to 1 nM purified HLA-DR molecules in the presence of a cocktail of protease inhibitors. Assays were performed at various pH conditions, ranging from pH 4 to pH 7. […] After incubation, the percentage of HLA-DR-bound radioactivity is determined by capturing HLA-DR/peptide complexes on Optiplates (Packard Instruments, Meriden, Conn.) coated with the LB3.1 antibody and determining bound counts per minute using the TopCount microscintillation counter (Packard Instruments). […] Competitor peptides are tested in 2-4 complete, independent experiments, at concentrations ranging from […].

purified HLA DRB1*0101 = target: T4, purified HLA DRB1*0101 (Homo sapiens, UniProt P01903+P01911, A100R/D57E/F55L/F60I/F76Y/I96L/L162R/M171V/P40L/Q125E/R42F/V115G/Y59C); assay: HLA-DR radioligand binding inhibition assay, DRB1*0101; conditions: IC50 nM purified HLA DRB1 *0101, purified HLA DRB1*0101
T4 construct: purified from EBV transformed homozygous cell lines or single MHC allele transfected 721.221, C1R, or fibroblast lines; made in house
In short: as §1

purified HLA DRB1*0404 = target: T5, purified HLA DRB1*0404 (Homo sapiens, UniProt P01903+P01911, A100R/A169T/F76Y/I96L/K127E/L162R/M171V/N62H/P40V/Q125Y/R42H/S133A/S149N/S66Y/V209L/W38E); assay: HLA-DR radioligand binding inhibition assay, DRB1*0404; conditions: IC50 nM purified HLA DRB1 *0404, purified HLA DRB1*0404
T5 construct: purified from EBV transformed homozygous cell lines or single MHC allele transfected 721.221, C1R, or fibroblast lines; made in house
In short: as §1

purified HLA DRB1*0901 = target: T6, purified HLA DRB1*0901 (Homo sapiens, UniProt P01903+P01911, A100R/A103E/D57H/D86V/F55Y/F60I/F76Y/I96F/K127E/L162R/M171V/P40D/Q125H/Q99R/R33Q/R42F/S133A/S66N/T210M/V115G/W38K/Y107V/Y59G/Y89S); assay: HLA-DR radioligand binding inhibition assay, DRB1*0901; conditions: IC50 nM purified HLA DRB1 *0901, purified HLA DRB1*0901
T6 construct: purified from EBV transformed homozygous cell lines or single MHC allele transfected 721.221, C1R, or fibroblast lines; made in house
Method: as §2
(§5) HLA-DR purification. Fifteen distinct HLA-DR molecules were used in quantitative assays to measure the binding of peptides to solubilized HLA-DR molecules. […] Briefly, columns of inactivated Sepharose CL4B and Protein A Sepharose were used as pre-columns. HLA-DR molecules were captured by passage of lysates over LB3.1 monoclonal antibody (anti-HLA-DRA) columns. Antibody columns were washed with 10 mM Tris-HCL, pH8.0 with 1% (v/v) NP-40, followed by PBS containing 0.4% (w/v) n-octylglucoside.
(§6) Briefly, 1-10 nM of radiolabeled peptide was co-incubated for 2 days at either room temperature or 37° C. with 1 μM to 1 nM purified HLA-DR molecules in the presence of a cocktail of protease inhibitors. Assays were performed at various pH conditions, ranging from pH 4 to pH 7. […] After incubation, the percentage of HLA-DR-bound radioactivity is determined by capturing HLA-DR/peptide complexes on Optiplates (Packard Instruments, Meriden, Conn.) coated with the LB3.1 antibody and determining bound counts per minute using the TopCount microscintillation counter (Packard Instruments).

purified HLA DRB1*0701 = target: T7, purified HLA DRB1*0701 (Homo sapiens, UniProt P01903+P01911, A100R/A102G/A103Q/D57E/D86V/E43K/F76Y/K127E/L162R/M171V/P40G/Q125H/Q99D/R33Q/R42Y/R54Q/S133A/S66F/T210M/V115G/Y107V/Y59L/Y89S); assay: HLA-DR radioligand binding inhibition assay, DRB1*0701; conditions: IC50 nM purified HLA DRB1 *0701, purified HLA DRB1*0701
T7 construct: purified from EBV transformed homozygous cell lines or single MHC allele transfected 721.221, C1R, or fibroblast lines; made in house
In short: as §1

purified HLA DRB1*1101 = target: T8, purified HLA DRB1*1101 (Homo sapiens, UniProt P01903+P01911, A100R/A169T/A87E/I96F/K41T/L162R/M171V/P40S/Q125H/Q178H/Q39Y/Q99D/R42S/S66Y/T262R/V115G/W38E); assay: HLA-DR radioligand binding inhibition assay, DRB1*1101; conditions: IC50 nM purified HLA DRB1 *1101, purified HLA DRB1*1101
T8 construct: purified from EBV transformed homozygous cell lines or single MHC allele transfected 721.221, C1R, or fibroblast lines; made in house
In short: as §1

purified HLA DRB1*0405 = target: T9, purified HLA DRB1*0405 (Homo sapiens, UniProt P01903+P01911, A100R/A169T/D86S/F76Y/I96L/K127E/L162R/M171V/N62H/P40V/Q125Y/R42H/S133A/S149N/S66Y/V115G/V209L/W38E); assay: HLA-DR radioligand binding inhibition assay, DRB1*0405; conditions: IC50 nM purified HLA DRB1 *0405, purified HLA DRB1*0405
T9 construct: purified from EBV transformed homozygous cell lines or single MHC allele transfected 721.221, C1R, or fibroblast lines; made in house
In short: as §1

purified HLA DRB1*0301 = target: T10, purified HLA DRB1*0301 (Homo sapiens, UniProt P01903+P01911, A100K/A102G/A103R/A169T/F55Y/I96L/K41T/L162R/M171V/P40S/Q125H/Q178H/Q39Y/R42S/S66N/T106N/T262R/W38E/Y61H); assay: HLA-DR radioligand binding inhibition assay, DRB1*0301; conditions: IC50 nM purified HLA DRB1 *0301, purified HLA DRB1*0301
T10 construct: purified from EBV transformed homozygous cell lines or single MHC allele transfected 721.221, C1R, or fibroblast lines; made in house
Method: as §2, §5, §6

purified HLA DRB1*0802 = target: T11, purified HLA DRB1*0802 (Homo sapiens, UniProt P01903+P01911, A100R/A103L/A169T/F76Y/H45Y/I96F/K41T/L162R/M171V/P40S/Q125H/Q178H/Q39Y/Q99D/R218S/R42G/S66Y/V115G/W38E); assay: HLA-DR radioligand binding inhibition assay, DRB1*0802; conditions: IC50 nM purified HLA DRB1 *0802, purified HLA DRB1*0802
T11 construct: purified from EBV transformed homozygous cell lines or single MHC allele transfected 721.221, C1R, or fibroblast lines; made in house
Method: as §2, §3, §4

purified HLA DRB3*0101 = target: T12, purified HLA DRB3*0101 (Homo sapiens, UniProt P01903+P79483); assay: HLA-DR radioligand binding inhibition assay, DRB3*0101; conditions: IC50 nM purified HLA DRB3 *0101, purified HLA DRB3*0101
T12 construct: purified from EBV transformed homozygous cell lines or single MHC allele transfected 721.221, C1R, or fibroblast lines; made in house
Method: as §2, §3, §4

purified HLA DRB4*0101 = target: T13, purified HLA DRB4*0101 (Homo sapiens, UniProt P01903+P13762, G164S); assay: HLA-DR radioligand binding inhibition assay, DRB4*0101; conditions: IC50 nM purified HLA DRB4 *0101, purified HLA DRB4*0101
T13 construct: purified from EBV transformed homozygous cell lines or single MHC allele transfected 721.221, C1R, or fibroblast lines; made in house
In short: as §1

purified HLA DRB1*1302 = target: T14, purified HLA DRB1*1302 (Homo sapiens, UniProt P01903+P01911, A100E/A169T/K41T/L162R/M171V/P40S/Q125H/Q178H/Q39Y/Q99D/R42S/S66N/T262R/V115G/W38E/Y61H); assay: HLA-DR radioligand binding inhibition assay, DRB1*1302
T14 construct: purified from EBV transformed homozygous cell lines or single MHC allele transfected 721.221, C1R, or fibroblast lines; made in house
In short: as §1

purified HLA DRB1*1501 = target: T15, purified HLA DRB1*1501 (Homo sapiens, UniProt P01903+P01911); assay: HLA-DR radioligand binding inhibition assay, DRB1*1501
T15 construct: purified from EBV transformed homozygous cell lines or single MHC allele transfected 721.221, C1R, or fibroblast lines; made in house
In short: as §1

T8 sequence (P01903 26-254, other chains not shown): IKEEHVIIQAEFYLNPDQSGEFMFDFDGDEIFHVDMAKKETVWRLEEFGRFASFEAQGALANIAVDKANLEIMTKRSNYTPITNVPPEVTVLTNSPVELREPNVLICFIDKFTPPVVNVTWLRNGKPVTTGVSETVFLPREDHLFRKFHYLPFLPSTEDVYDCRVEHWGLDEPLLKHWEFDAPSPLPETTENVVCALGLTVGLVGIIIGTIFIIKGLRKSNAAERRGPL

| IC50 (purified HLA DRB5*0101) [nM] | IC50 (purified HLA DRB1*0401) [nM] | IC50 (purified HLA DRB1*1201) [nM] | IC50 (purified HLA DRB1*0101) [nM] | IC50 (purified HLA DRB1*0404) [nM] | IC50 (purified HLA DRB1*0901) [nM] | IC50 (purified HLA DRB1*0701) [nM] | IC50 (purified HLA DRB1*1101) [nM] | IC50 (purified HLA DRB1*0405) [nM] | IC50 (purified HLA DRB1*0301) [nM] | IC50 (purified HLA DRB1*0802) [nM] | IC50 (purified HLA DRB3*0101) [nM] | IC50 (purified HLA DRB4*0101) [nM] | IC50 (purified HLA DRB1*1302) [nM] | IC50 (purified HLA DRB1*1501) [nM] | SMILES |
| --- | --- | --- | --- | --- | --- | --- | --- | --- | --- | --- | --- | --- | --- | --- | --- |
| > 20000 | 1640 | 16900 | 4030 | 2910 | > 20000 | 16800 | > 20000 | > 20000 | 31 | > 20000 |  |  |  |  | CC[C@H](C)[C@H](NC(=O)[C@@H](NC(=O)[C@@H]1CCCN1C(=O)[C@H](C)N)[C@@H](C)O)C(=O)N[C@@H](CCCNC(=N)N)C(=O)NCC(=O)N[C@@H](CC(=O)O)C(=O)N1CCC[C@H]1C(=O)N[C@@H](CCC(=O)O)C(=O)N[C@@H](CS)C(=O)N[C@@H](Cc1c[nH]cn1)C(=O)N[C@@H](CC(C)C)C(=O)N[C@@H](Cc1ccccc1)C(=O)N[C@@H](Cc1ccc(O)cc1)C(=O)N[C@@H](CC(N)=O)C(=O)O [Peptide 9019.0022] |
| 4620 | 95 | > 20000 |  |  | 15900 | 1100 | > 20000 | 3170 | 64 |  | > 20000 | 33 | 879 | 25 | CC[C@H](C)[C@H](NC(=O)[C@H](CS)NC(=O)[C@H](CC(C)C)NC(=O)[C@@H](N)CCCCN)C(=O)N[C@@H](Cc1ccc(O)cc1)C(=O)N[C@H](C(=O)N[C@@H](CC(=O)O)C(=O)N[C@@H](CC(N)=O)C(=O)N[C@@H](CO)C(=O)N[C@H](C(=O)N[C@@H](CCCNC(=N)N)C(=O)N1CCC[C@H]1C(=O)N[C@@H](CCC(=O)O)C(=O)N[C@@H](CCC(=O)O)C(=O)N[C@@H](CC(C)C)C(=O)O)[C@@H](C)CC)[C@@H](C)O [Peptide 9019.0159] |

From patent publication US20140377340A1, “HLA-DR BINDING PEPTIDES AND THEIR USES” (priority 2007, published 2014)
